Test results published in patent US20240060131A1, “METHOD FOR IDENTIFYING AND/OR REGULATING SENESCENCE” (INSTITUTE OF ZOOLOGY, CHINESE ACADEMY OF SCIENCES, priority 2020, published 2024).

How the values were obtained:
WS hMPC = assay: Ki67 and SA-β-gal staining of WS hMPC treated with retrovirus inhibitors; assay type: cell-based, human; conditions: WS hMPCs, 10 μM lamivudine (3TC), abacavir (0.2 μM), Raltegravir, vs DMSO solvent control
Procedure: Cells seeded on coverslip (Thermo Fisher Scientific) were washed by PBS, fixed in 4% paraformaldehyde (PFA), permeabilized in 0.4% Triton X-100, blocked by 10% donkey serum. The coverslip was incubated with primary antibody at 4° C. in blocking buffer, then incubated with secondary antibody at room temperature for 1 h. Nucleus was labelled by Hoechst 33342 (Invitrogen).
For treatment by endogenous viral reverse transcriptase inhibitor and integrase inhibitor, hMPCs were treated by […] abacavir, lamivudine (3TC) and Raltegravir, respectively, medium was replaced every 3 days, followed by new treatment. After treatment of two cell passages, cells were used for Ki67 immunofluorescence, SA-β-gal staining and RNA/DNA extraction.
Cells were fixed by a buffer containing 2% (w/v) formaldehyde and 0.2% (w/v) glutaraldehyde for 5 min, and treated by staining buffer containing 1 mg/mL X-gal at 37° C. overnight.
10 μM lamivudine (3TC), abacavir (0.2 μM) and Raltegravir were added to WS hMPC, respectively, incubated at 37° C., and fresh medium containing each drug was replaced every two days, solvents dissolving above-mentioned drug with DMSO added at a corresponding amount were used as control.
Above-mentioned cells were stained by Ki67 and SA-β-gal.

HERVK = HERVK transposition events (reporter, flow cytometry) and DNA copy number in WS hMPC; assay type: cell-based, human; conditions: 10 days after incubation
Procedure: The experiment for detecting DNA of HERVK gene by single molecule DNA-FISH was conducted by the National Key Laboratory of Agricultural Microbiology, Huazhong Agricultural University. Senescent cells were successively treated by RNase A (100 μg/mL, dissolved in 2×SSC) at 37° C. for 1 h, treated by 70% formamide dissolved in 2×SSC at 72° C. for 10 min, treated by precooled ethanol (concentration from 80%, 90% to 100%, each treatment for 1 min). Then cells were incubated with HERVK […] specific probe pairs (each probe 10 μM) in hybridization solution (10% deionized formamide, 2×SSC, 10% dextran sulfate and 2 mM VRC) at 42° C. overnight. Washed 3 times by washing buffer (2×SSC, 30% formamide, 0.1% Triton-X 100 and 2 mM VRC), cells were incubated with amplification probes (SFSP-001 and SFTP-001, Spatial FISH, Co., Ltd.) and fluorescent probes (SFFP-001, Spatial FISH, Co., Ltd) together, HERVK DNA was subjected to single molecule detection. Finally, cells were counterstained by DAPI and imaged by confocal microscope.
In brief, to assess transposition events occurred in HERVK during aging process, wild type mesenchymal stem cells of early passage and late passage (P7 generation and P14 generation) were transfected with HERVK reporter plasmid, and meanwhile co-transfected with dsRed, a vector expressing red fluorescence (obtained from Xu Xingzhi's Laboratory, School of Basic Medicine, Shenzhen University) to calculate transfection probability. After the confluence of cells, cells were digested into single cell, and resuspended by PBS, analyzed by flow cytometer BD Influx, the ratio of cells positive for green fluorescence to cells positive for red fluorescence was the probability of transposition events occurred in HERVK.
To construct HERVK transposition reporter vector, first, above-mentioned HERVK fragment was cloned to dsRed vector having KpnI enzyme site mutant (obtained from Xu Xingzhi's Laboratory, School of Basic Medicine, Shenzhen University). GFP reporter (SEQ ID NO: 152) was obtained by PCR amplification from L 1 reporter (gifted by Prof. Wang Jichang, Sun Yat-sen University in Guangzhou, China), GFP reporter was inserted to dsRed-HERVK through KpnI site, contructing HERVK transposition reporter vector.
To assess transposition events occurred for HERVK during aging process, cells of early and late generations were transfected with HERVK reporter plasmid, and meanwhile co-transfected with a vector expressing red fluorescence to calculate transfection probability. After confluence of cells, cells were digested into single cell, and resuspended with PBS, analyzed by flow cytometer BD Influx, the ratio of cells positive for green fluorescence to cells positive for red fluorescence was the probability of transposition events occurred in HERVK. […]

old mice [1] = assay: Abacavir injected to articular cavity of old mice (joint aging); assay type: in vivo, mouse
Procedure: 10 μl Abacavir (in PBS with 2% DMSO) at the concentration of 10 mg/ml was injected to knee joint cavities of mice of 22 months old (n=12), injected once a week. Grip strength test was performed 4 weeks, 8 weeks and 12 weeks after the first injection. Motor coordination and balance, motor ability and Micro-CT were performed 14 weeks after the first injection, samples were taken, i.e., joints of mice hind limbs were taken out, one was frozen in liquid nitrogen and the other was fixed in 4% PFA.
(§1) Grip strength of the limbs was measured by Grip strength meter (Panlab Grip Strength Meter, LE902) in accordance with the manufacturer's instructions. In brief, mice were put on the top of grip strength meter and pulled along the grid at a constant rate, until mice loosened its grip. The peak tension in each of the 10 repeats was recorded, and the mean value was calculated as grip strength for each mouse.
Mice were placed on a running machine (SANS Bio Instrument, SA101) to test the motor ability of mice in accordance with the manufacturer's instructions. In particular, slope of runway was set as 5°, electrical stimulation was 2 mA, the running speed was set as follows: an initial velocity of 5 m/min for 5 min; then accelerating to final velocity of 25 m/min with an accelerated rate of 1 m/min 2, 20 mins in total. First, mice were trained for three consecutive days, and tested on the fourth day. The times of electrical stimulation, and the run distance in […] were recorded.
Micro-CT (PE Quantum FX) was performed in accordance with the manufacturer's instructions. In brief, mice were anesthetized and placed in the instrument, scanning parameters for Micro-CT were voltage 50Kvp, power 40 W, 6-frame superposition, field 4 cm×4 cm. Three-dimensional images were screenshot after scan and reconstruction, and bone density was calculated by Ansys software.
5.2. Retrovirus inhibitor Abacavir delayed joint aging of old mice Retrovirus inhibitor Abacavir was injected to articular cavity of old mice (23 months old), concentration was 10 mg/ml, once a week, 10 μl every time (as shown by FIG. 32A). (n=10)

old mice [2] = assay: Long-term oral administration of Abacavir in drinking water to old mice; assay type: in vivo, mouse; conditions: for mice died: n=23
Procedure: Abacavir was dissolved in drinking water containing 0.4% DMSO at 2 mg/ml, mice of 18 months old were administered by feeding the water daily (n=23). The weight, hollow back, hair, skin, eye (cataract) and activity score of mice were measured 6 weeks, 12 weeks and 24 weeks after administration, grip strength was measured and a survival curve was plotted. […]
as §1
Mice were placed in the end of any arm of Y maze (trisection radiation maze, consisting of 3 arms with equal length (50 cm×18 cm×35 cm), the intersection angle between every two arms was 120 degree), allowed to explore freely for 5 min, animal behavior changes in 5 min were recorded by camera system, and the short-term spatial memory ability of mice was detected by recording the total times that the mice entered the arms and the rotations that the mice entered in turn the three arms of the Y maze.
Retrovirus inhibitor Abacavir was dissolved in drinking water for mice (containing 0.3% DMSO) at a concentration of 2 mg/ml (n=23), and mice of 18 months old was administered daily (as shown by FIG. 33A).

old mice [3] = assay: Long-term intraperitoneal injection of Ratelgravir to old mice; assay type: in vivo, mouse; conditions: 16 weeks
Procedure: Ratelgravir was dissolved at 50 mg/ml in 30% PEG300+2% Tween80+2% DMSO, and intraperitoneally injected to mice at 18 months old, […] each time, twice a week (n=23). The weight, hollow back, hair, skin, cataract and activity score of mice were measured 8 weeks and 16 weeks after first injection, grip strength was measured and a survival curve was plotted.
as §1
The retrovirus integrase inhibitor Ratelgravir was dissolved in 30% PEG300+2% Tween80+2% DMSO at a concentration of 50 mg/ml, mice at 18 months old was injected intraperitoneally, […], 200 μl/injection, twice a week (as shown by FIG. 34A).

cGAS-STING pathway = assay: cGAS-STING innate immune pathway and SASP in hMPCs (Western blot, RT-qPCR); assay type: cell-based, human; conditions: knockdown in HGPS and WS hMPCs
Procedure: Cells were lysed in 1×SDS buffer (100 mM Tris-HCl, pH 6.8, 10% glycerol, 2% SDS and 2%2-mercaptoethanol), boiled for 10 min at 105° C. Protein concentration was measured by BCA kit. Cell lysate was subjected to SDS-PAGE electrophoresis, then transferred to PVDF membrane (Millipore). The membrane was incubated with primary antibody, incubated with secondary antibody conjugated to HRP after washing, then blotted with substrate, the substrate was the mixture of 1000 μL substrate A and 3 μL substrate B (substrate A: 0.2 mM cumaric acid, 1.25 mM luminal, 0.1 M Tris-HCl, pH 8.5; substrate B: 3% H2O2) or Super Signal West Femto Maximum Sensitivity Substrate (Thermo Fisher Scientific). Images were taken by Image Lab software. Quantification was conducted by ImageJ.
In accordance with the manufacturer's instructions, total RNA of cell was extracted by TRIzol (Thermo Fisher Scientific); reverse transcribed into cDNA with GoScript reverse transcription system (Promega) for RT-qPCR; RT-qPCR was conducted with THUNDERBIRD qPCR Mix (TOYOBO) and CFX384 real-time system (Bio-Rad Laboratories, Inc.).
To further study the activation of cGAS-STING DNA sensing pathway, the following key characteristics in different senescent hMPCs (including RS, HGPS and WS) and fibroblasts were detected: […] TANK binding kinase 1 (TBK1) and IFN regulating factor 3 (IRF3) as well as proinflammatory cytokines (e.g., IL1B andIL6), these factors were regarded as SASP factors.

[4] = articular cavity injection, P value not significant
[5] = drinking water 2 mg/ml, 24 weeks
[6] = drinking water 2 mg/ml, 30 weeks

Nc1nc(NC2CC2)c2ncn([C@H]3C=C[C@@H](CO)C3)c2n1 [Abacavir, abacavir]
Ki67 positive cells (WS hMPC): increase | SA-β-gal positive cells (WS hMPC): reduce | Ki67 positive cells (WS hMPC; listed as abacavir): significantly were increased | SA-β-gal positive cells (WS hMPC; listed as abacavir): significantly were decreased | HERVK DNA copy number (HERVK): decreases | HERVK transposition events (HERVK): reduces | HERVK DNA copy number (HERVK; listed as abacavir): effectively reduce | HERVK transposition events (HERVK; listed as abacavir): effectively reduce | bone density of joint (old mice [1]; 15 weeks after injecting): increased | expression of senescence-associated protein p21 in joint (old mice [1]; RT-qPCR of joint RNA): decreased | level of inflammatory factor IL1B in joint (old mice [1]; RT-qPCR of joint RNA): decreased | level of inflammatory factor IL6 in joint (old mice [1]; RT-qPCR of joint RNA): decreased | forced treadmill running distance (old mice [1]; [4]): improve | forced treadmill running time (old mice [1]; [4]): improve | forced treadmill shocked time (old mice [1]; articular cavity injection, trend, P value not significant): reduce | limb tension of mice (old mice [1]; old mice (23 months old), articular cavity 10 mg/ml, 10 μl once a week, 8 weeks after injecting, vs vehicle): significantly was enhanced | mice died (old mice [2]; 24 weeks after administering, control group 2 died): 0 | mice died (old mice [2]; 30 weeks after administering, control group 4 died): 1 | spatial short-term memory ability (old mice [2]; Y Maze, 30 weeks): enhanced | condition of hair (old mice [2]; [5]): improve | condition of hollow back (old mice [2]; [5]): improve | mobility ability of mice (old mice [2]; [5]): enhance | Y Maze rotations that the mice entered in turn the three arms (old mice [2]; [6]): increased | Y Maze total times that the mice entered the arms (old mice [2]; [6]): increased | survival rate of old mice (old mice [2]; drinking water 2 mg/ml, up to 30 weeks): improve | limb tension of mice (old mice [2]; mice of 18 months old, 2 mg/ml in drinking water daily, 12 weeks): significantly enhanced

Cc1nnc(C(=O)NC(C)(C)c2nc(C(=O)NCc3ccc(F)cc3)c(O)c(=O)n2C)o1 [Raltegravir]
Ki67 positive cells (WS hMPC): significantly were increased | SA-β-gal positive cells (WS hMPC): significantly were decreased | Ki67 positive cells (WS hMPC; listed as Ratelgravir): increase | SA-β-gal positive cells (WS hMPC; listed as Ratelgravir): reduce | condition of hair (old mice [3]; i.p. twice a week): improve | condition of hollow back (old mice [3]; i.p. twice a week): improve | limb tension of mice (old mice [3]; mice at 18 months old, 50 mg/ml, 200 μl i.p. twice a week, vs vehicle): significantly was increased

shSTING-2 (guide GCCCGGATTCGAACTTACAAT; chemistry not given here)
SASP (cGAS-STING pathway): alleviated | cell senescence (cGAS-STING pathway): alleviated | phosphorylation level of IRF3 (cGAS-STING pathway): reduced | phosphorylation level of RelA (cGAS-STING pathway): reduced | phosphorylation level of TBK1 (cGAS-STING pathway): reduced
